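Five concentrations, 48 hours, 96-well plates. TGI denotes the concentration required for complete inhibition of growth.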
Assays:
Experiment in all cases: NCI anticancer screen, dose series, 48 h
RPMI-8226 leukemia = test system: RPMI-8226 leukemia
OVCAR-8 ovarian = test system: OVCAR-8 ovarian
HCC-2998 colon = test system: HCC-2998 colon
UACC-62 melanoma = test system: UACC-62 melanoma
OVCAR-4 ovarian = test system: OVCAR-4 ovarian
SK-MEL-5 melanoma = test system: SK-MEL-5 melanoma
OVCAR-5 ovarian = test system: OVCAR-5 ovarian
UO-31 renal = test system: UO-31 renal
SNB-19 CNS = test system: SNB-19 CNS
HOP-62 NSCLC = test system: HOP-62 NSCLC
U251 CNS = test system: U251 CNS
MOLT-4 leukemia = test system: MOLT-4 leukemia
SF-295 CNS = test system: SF-295 CNS
M14 melanoma = test system: M14 melanoma
SR leukemia = test system: SR leukemia
SF-539 CNS = test system: SF-539 CNS
K-562 leukemia = test system: K-562 leukemia
HCT-116 colon = test system: HCT-116 colon
COLO 205 colon = test system: COLO 205 colon
HOP-18 NSCLC = test system: HOP-18 NSCLC
HT29 colon = test system: HT29 colon
NCI-H23 lung = test system: NCI-H23 lung
M19-MEL melanoma = test system: M19-MEL melanoma
OVCAR-3 ovarian = test system: OVCAR-3 ovarian
RXF 393 renal = test system: RXF 393 renal
DLD-1 colon = test system: DLD-1 colon
KM12 colon = test system: KM12 colon
786-0 renal = test system: 786-0 renal
CAKI-1 renal = test system: CAKI-1 renal
MALME-3M melanoma = test system: MALME-3M melanoma
DMS 114 small cell lung = test system: DMS 114 small cell lung
IGROV1 ovarian = test system: IGROV1 ovarian
SK-OV-3 ovarian = test system: SK-OV-3 ovarian
XF 498 CNS = test system: XF 498 CNS
TK-10 renal = test system: TK-10 renal
EKVX NSCLC = test system: EKVX NSCLC
SK-MEL-28 melanoma = test system: SK-MEL-28 melanoma
SNB-78 CNS = test system: SNB-78 CNS
SK-MEL-2 melanoma = test system: SK-MEL-2 melanoma
HCT-15 colon = test system: HCT-15 colon
NCI-H226 lung = test system: NCI-H226 lung
PC-3 prostate = test system: PC-3 prostate
MCF7 breast = test system: MCF7 breast
NCI-H460 lung = test system: NCI-H460 lung
DU-145 prostate = test system: DU-145 prostate
MDA-MB-435 = test system: MDA-MB-435
BT-549 breast = test system: BT-549 breast
SW-620 colon = test system: SW-620 colon
MDA-N = test system: MDA-N
SNB-75 CNS = test system: SNB-75 CNS
A498 renal = test system: A498 renal
T-47D breast = test system: T-47D breast
NCI/ADR-RES ovarian = test system: NCI/ADR-RES ovarian
LOX IMVI melanoma = test system: LOX IMVI melanoma
HL-60(TB) leukemia = test system: HL-60(TB) leukemia
NCI-H522 lung = test system: NCI-H522 lung
HOP-92 NSCLC = test system: HOP-92 NSCLC
SN12C renal = test system: SN12C renal
UACC-257 melanoma = test system: UACC-257 melanoma
MDA-MB-231 breast = test system: MDA-MB-231 breast
SF-268 CNS = test system: SF-268 CNS
CCRF-CEM leukemia = test system: CCRF-CEM leukemia
A549 NSCLC = test system: A549 NSCLC
HS 578T breast = test system: HS 578T breast
ACHN renal = test system: ACHN renal

**Q.** Which results are given for COC(=O)C12C(=O)O[C@H](C)C1(O)C(C)C(=O)N2C (stereo partly drawn)?
**A.** TGI (RPMI-8226 leukemia): > 100 µM; TGI (OVCAR-8 ovarian): > 100 µM; TGI (HCC-2998 colon): > 100 µM; TGI (UACC-62 melanoma): > 100 µM; TGI (OVCAR-4 ovarian): > 100 µM; TGI (SK-MEL-5 melanoma): > 100 µM; TGI (OVCAR-5 ovarian): > 100 µM; TGI (UO-31 renal): > 100 µM; TGI (SNB-19 CNS): > 100 µM; TGI (HOP-62 NSCLC): > 100 µM; TGI (U251 CNS): > 100 µM; TGI (MOLT-4 leukemia): > 100 µM; TGI (SF-295 CNS): > 100 µM; TGI (M14 melanoma): > 100 µM; TGI (SR leukemia): > 100 µM; TGI (SF-539 CNS): > 100 µM; TGI (K-562 leukemia): > 100 µM; TGI (HCT-116 colon): > 100 µM; TGI (COLO 205 colon): > 100 µM; TGI (HOP-18 NSCLC): > 100 µM; TGI (HT29 colon): > 100 µM; TGI (NCI-H23 lung): > 100 µM; TGI (M19-MEL melanoma): > 100 µM; TGI (OVCAR-3 ovarian): > 100 µM; TGI (RXF 393 renal): > 100 µM; TGI (DLD-1 colon): > 100 µM; TGI (KM12 colon): > 100 µM; TGI (786-0 renal): > 100 µM; TGI (CAKI-1 renal): > 100 µM; TGI (MALME-3M melanoma): > 100 µM; TGI (DMS 114 small cell lung): > 100 µM; TGI (IGROV1 ovarian): > 100 µM; TGI (SK-OV-3 ovarian): > 100 µM; TGI (XF 498 CNS): 86.2 µM; TGI (TK-10 renal): > 100 µM; TGI (EKVX NSCLC): > 100 µM; TGI (SK-MEL-28 melanoma): > 100 µM; TGI (SNB-78 CNS): > 100 µM; TGI (SK-MEL-2 melanoma): > 100 µM; TGI (HCT-15 colon): > 100 µM

**Q.** With CCCCC(=O)NC1(c2cc3ccccc3s2)CCCCC1 as the compound, how does the TGI (RPMI-8226 leukemia) read?
**A.** > 100 µM

**Q.** And the TGI (OVCAR-8 ovarian)?
**A.** > 100 µM

**Q.** What about the TGI (NCI-H226 lung) of the same compound?
**A.** > 100 µM

**Q.** And the TGI (HCC-2998 colon)?
**A.** > 100 µM

**Q.** And the TGI (UACC-62 melanoma)?
**A.** > 100 µM

**Q.** And the TGI (OVCAR-4 ovarian)?
**A.** > 100 µM

**Q.** And the TGI (SK-MEL-5 melanoma)?
**A.** > 100 µM

**Q.** And the TGI (OVCAR-5 ovarian)?
**A.** > 100 µM

**Q.** What about the TGI (UO-31 renal) of the same compound?
**A.** > 100 µM

**Q.** What about the TGI (SNB-19 CNS) of the same compound?
**A.** > 100 µM

**Q.** And the TGI (PC-3 prostate)?
**A.** > 100 µM

**Q.** What about the TGI (HOP-62 NSCLC) of the same compound?
**A.** > 100 µM

**Q.** And the TGI (U251 CNS)?
**A.** > 100 µM

**Q.** What about the TGI (SF-295 CNS) of the same compound?
**A.** > 100 µM

**Q.** And the TGI (M14 melanoma)?
**A.** > 100 µM

**Q.** What about the TGI (SR leukemia) of the same compound?
**A.** > 100 µM

**Q.** What about the TGI (MCF7 breast) of the same compound?
**A.** > 100 µM

**Q.** And the TGI (NCI-H460 lung)?
**A.** > 100 µM

**Q.** And the TGI (DU-145 prostate)?
**A.** > 100 µM

**Q.** What about the TGI (MDA-MB-435) of the same compound?
**A.** > 100 µM

**Q.** And the TGI (SF-539 CNS)?
**A.** > 100 µM

**Q.** And the TGI (K-562 leukemia)?
**A.** > 100 µM

**Q.** And the TGI (HCT-116 colon)?
**A.** > 100 µM

**Q.** And the TGI (COLO 205 colon)?
**A.** > 100 µM

**Q.** What about the TGI (BT-549 breast) of the same compound?
**A.** > 100 µM

**Q.** What about the TGI (HT29 colon) of the same compound?
**A.** > 100 µM

**Q.** And the TGI (SW-620 colon)?
**A.** > 100 µM

**Q.** And the TGI (NCI-H23 lung)?
**A.** > 100 µM

**Q.** What about the TGI (MDA-N) of the same compound?
**A.** > 100 µM

**Q.** And the TGI (SNB-75 CNS)?
**A.** > 100 µM

**Q.** What about the TGI (A498 renal) of the same compound?
**A.** > 100 µM

**Q.** What about the TGI (T-47D breast) of the same compound?
**A.** > 100 µM

**Q.** And the TGI (NCI/ADR-RES ovarian)?
**A.** > 100 µM

**Q.** What about the TGI (LOX IMVI melanoma) of the same compound?
**A.** > 100 µM

**Q.** What about the TGI (OVCAR-3 ovarian) of the same compound?
**A.** > 100 µM

**Q.** What about the TGI (RXF 393 renal) of the same compound?
**A.** > 100 µM

**Q.** What about the TGI (HL-60(TB) leukemia) of the same compound?
**A.** 76.5 µM

**Q.** And the TGI (KM12 colon)?
**A.** > 100 µM

**Q.** What about the TGI (NCI-H522 lung) of the same compound?
**A.** > 100 µM

**Q.** And the TGI (786-0 renal)?
**A.** > 100 µM

**Q.** What about the TGI (CAKI-1 renal) of the same compound?
**A.** > 100 µM

**Q.** And the TGI (MALME-3M melanoma)?
**A.** > 100 µM

**Q.** And the TGI (HOP-92 NSCLC)?
**A.** > 100 µM

**Q.** And the TGI (IGROV1 ovarian)?
**A.** > 100 µM

**Q.** And the TGI (SK-OV-3 ovarian)?
**A.** > 100 µM

**Q.** What about the TGI (SN12C renal) of the same compound?
**A.** > 100 µM

**Q.** What about the TGI (UACC-257 melanoma) of the same compound?
**A.** > 100 µM

**Q.** And the TGI (MDA-MB-231 breast)?
**A.** > 100 µM

**Q.** And the TGI (SF-268 CNS)?
**A.** > 100 µM

**Q.** What about the TGI (CCRF-CEM leukemia) of the same compound?
**A.** > 100 µM

**Q.** And the TGI (TK-10 renal)?
**A.** > 100 µM

**Q.** And the TGI (EKVX NSCLC)?
**A.** > 100 µM

**Q.** And the TGI (SK-MEL-28 melanoma)?
**A.** > 100 µM

**Q.** What about the TGI (A549 NSCLC) of the same compound?
**A.** > 100 µM

**Q.** What about the TGI (HS 578T breast) of the same compound?
**A.** > 100 µM

**Q.** What about the TGI (SK-MEL-2 melanoma) of the same compound?
**A.** > 100 µM

**Q.** And the TGI (HCT-15 colon)?
**A.** > 100 µM

**Q.** And the TGI (ACHN renal)?
**A.** > 100 µM

Source: PubChem BioAssay (NCI)
